# Source: US20250195598A1, “FLAVONOID ACTIVE FRACTION OF AN ABELMOSCHI COROLLA, PREPARATION METHOD AND APPLICATION THEREOF” (SUZHONG PHARMACEUTICAL GROUP CO., LTD., priority 2022, published 2025)
# What was measured:
# [1] = compared with the control group; cited from earlier work
# [2] = test system: db/db mice; assay: db/db mice diabetic kidney disease model; format: in vivo; conditions: samples 62.4 mg/kg, Dapagliflozin tablet 45.5 mg/kg
# Protocol: Animal model: db/db mice, 16 weeks old, and C57 BL/6 mice, 16 weeks old. Administration mode: intragastric administration. Experimental modeling: the db/db mice were raised for 17 weeks, and then urine protein was detected. When there were urine protein and renal function abnormality, the modeling was successful for later experiment. Experimental groups: there were a normal group of the C57 BL/6 mice, a model group of the db/db mice, a positive drug group (Dapagliflozin tablet, 45.5 mg/kg), a sample group prepared by the method of Embodiment 3-1 (62.4 mg/kg), a sample group prepared by the method of Embodiment 9.1 (62.4 mg/kg), and a sample group prepared by the method of Embodiment 2-A3 (62.4 mg/kg). There were 6 groups in total, with 15 mice in each group. After 4 weeks of administration, urine protein, urine creatinine and a daily food intake were detected, and a mouse state was observed.
# [3] = test system: diabetic kidney disease model, C57BL/6 mice; assay: streptozotocin (STZ)+high-fat-fed diabetic kidney disease model; format: in vivo; conditions: samples 62.4 mg/kg, Dapagliflozin tablet 45.5 mg/kg
# Protocol: Administration method: intragastric administration. Experimental modeling: after 3 days of adaptive feeding, the experimental mice were fed with high-fat and high-sugar feed (made by laboratory according to a formula of lard:sucrose:yolk:basic feed=18:20:3:59) for 8 consecutive weeks, and then intraperitoneally injected with an STZ sodium citrate solution according to a dosage of 100 mg/kg for 7 consecutive days. […] When the blood glucose was greater than 13.8 mmol/L, and there were urine protein and renal function abnormality, the modeling was successful. Experimental groups: there were a total of 6 groups, comprising a normal group, a model group, a positive drug group (Dapagliflozin tablet, 45.5 mg/kg), a sample group prepared by the method of Embodiment 2-1 (62.4 mg/kg), a sample group prepared by the method of Embodiment 6 (62.4 mg/kg) and a sample group prepared by the method of Embodiment 8 (62.4 mg/kg), with 15 mice in each group. After 4 weeks of administration, urine protein and urine creatinine were detected, and a daily food intake and a mouse state were calculated.
# [4] = test system: MRL/lpr mice; assay: lupus erythematosus nephritis; format: in vivo; conditions: Dexamethasone 1 mg/kg, Embodiment 2-B 69.9 mg/kg, other samples 87.36 mg/kg
# Text: 26 male MRL/lpr mice (lupus erythematosus nephritis mice) were selected as an observation group 1, with 18 g to 22 g weight and 13 weeks old, which were purchased from Nanjing Junke Bioengineering Co., Ltd., and 24 male C57BL/6 mice were selected as a normal group, with 18 g to 22 g weight and 13 weeks old, which were purchased from Wuhan Hualianke Biotechnology Co., Ltd.
# The mice were administrated for 4 weeks.
# After administration, 24-hour urine was collected to detect urine protein. After the urine was collected, eyeballs of all the mice were taken for blood collection, and the collected blood was centrifuged to obtain serum for antinuclear antibody detection. Meanwhile, kidneys of the mice were taken out, quickly frozen in liquid nitrogen, and stored in a refrigerator at −80° C. for kidney immune detection.
# [5] = test system: SD rats; assay: contrast-induced kidney injury; format: in vivo; conditions: intragastric, 4 weeks; Irbesartan 50 mg/kg/d, samples 69.9 or 87.36 mg/kg (groups of b143 differ from the table)
# Protocol: Experimental animals: SD rats, 200 g to 250 g weight, SPF grade, half male and half female.
# (§1) Administration mode: intragastric administration.
# Experimental modeling: healthy male SD rats were selected, intramuscularly injected with furosemide (10 ml/kg) first, and then injected with a prostaglandin synthesis inhibitor (indomethacin, 10 mg/kg, dissolved in dimethyl sulfoxide, and diluted with 1.25% of NAHCO3 solution), a nitric oxide synthase inhibitor (N-nitro-L-arginine-methyl ester hydrochloride, L-NAME, 10 mg/kg, dissolved in 0.9% of NaCl solution) and 76% of meglumine diatrizoate by tail vein every 15 minutes.
# In animal models, the increase of serum creatinine exceeding the baseline by 50% was often used as the diagnostic criterion of acute kidney injury, that was, the success criterion of modeling.
# Drug groups and administration dosages: there were a normal group, a model group, a positive control drug group (Irbesartan 50 mg/kg/d), a sample group of Embodiment 2-1 (69.9 mg/kg), a sample group of Embodiment 3.1 (87.36 mg/kg), a sample group of Embodiment 7 (87.36 mg/kg), a sample group of Embodiment 9.1 (87.36 mg/kg) and a sample group of Embodiment 9.2 (87.36 mg/kg, the solids prepared according to Embodiment 9.2), with 15 rats in each group. […]
# [6] = test system: Kunming mice; assay: bleomycin-induced idiopathic pulmonary fibrosis; format: in vivo; conditions: HE staining, four grades, 28 days; Rosiglitazone 5 mg/kg, samples 70 mg/kg, Huangkui Capsule 180 mg/kg based on the extract
# Protocol: Experimental animals: 60 Kunming mice, half male and half female, 18 g to 22 g weight, clean grade.
# Animal groups: the mice were randomly divided into 6 groups, which comprise a normal group, a model group, a drug control group (5 mg/kg of Rosiglitazone), a sample group prepared by the method of Embodiment 2-A3 (70 mg/kg), a sample group prepared by the method of Embodiment 9.2 (70 mg/kg) and a Huangkui Capsule sample group (180 mg/kg based on the extract), with 10 mice in each group.
# Experimental modeling: after 3 days of adaptive feeding, the experimental mice were anesthetized by intraperitoneal injection with 4% chloral hydrate (0.01 ml/g). Taking a supine fixed position, routine disinfection was carried out, a median cervical incision was made, and a trachea was exposed by passive separation. The model group, the control group and the treatment group were slowly injected with bleomycin (5 mg/kg) into a space between tracheal cartilaginous rings, and the normal control group was injected with the same volume of normal saline. The mice were immediately rotated upright for 3 minutes to 5 minutes after the injection, so that the liquid medicine was evenly distributed in both lungs, then skin of the mice was sutured and disinfected at a suture, and the mice after waking were sent to a clean grade observation room for feeding. […]
# [7] = compounds having five hydroxyl groups; cited from earlier work
# [8] = test system: Brown-Norway rats; assay: ocular blood flow and choroidal neovascularization after krypton laser photocoagulation; format: in vivo; conditions: intragastric, after 4 weeks; Verteporfin 1.35 mg/kg, Embodiment 2-1 69.9 mg/kg, other samples 87.36 mg/kg
# Protocol: Experimental animals: rats, 150 g to 180 g weight, SPF grade, half male and half female.
# as §1
# Experimental modeling: healthy male Brown-Norway rats were selected and anesthetized by intramuscular injection of ketamine (50 mg/kg), pupils of the rats were dilated with a mixed mydriatic of 0.5% tropicamide and neofolin, and 8 points were photocoagulated between great retinal vessels around an optic disc at a distance 2 to 4 disc diameters away from the optic disc under a 120D special front lens by a krypton yellow laser (Lumenis Company in the United States) (wavelength 568 nm, and parameters: spot diameter […], exposure time 0.1 second, and power 150 mW to 200 mW). […]
# Drug groups and administration dosages: there were a normal group, a model group, a positive control drug group (Verteporfin 1.35 mg/kg), a sample group of Embodiment 2-1 (69.9 mg/kg), a sample group of Embodiment 3.1 (87.36 mg/kg), a sample group of Embodiment 7 (87.36 mg/kg), a sample group of Embodiment 9.1 (87.36 mg/kg) and a sample group of Embodiment 9.2 (87.36 mg/kg, solids prepared according to Embodiment 9.2), with 15 rats in each group. After 4 weeks of administration, an inhibition rate of choroidal blood flow and an area of choroidal neovascularization of eyes were detected.
compound,measurement,setting,value
Cc1ccc([C@@H]2O[C@H](CO)[C@@H](O)[C@H](O)[C@H]2O)cc1Cc1ccc(-c2ccc(F)cc2)s1 [Canagliflozin],serum uric acid level,[1],significantly reduces
"CCOc1ccc(Cc2cc([C@@H]3O[C@H](CO)[C@@H](O)[C@H](O)[C@H]3O)ccc2Cl)cc1 [Dapagliflozin tablet, Dapagliflozin]",Urine albumin-to-creatinine ratio/,"[2]; intragastric, after 4 weeks",1.17 ± 1.26
same,Urine protein/mg,"[2]; intragastric, after 4 weeks",15.09 ± 10.27 mg
same,Abdominal distension/number of mice,"[2]; of 15 mice per group, 4 weeks",0 number of mice
same,Diarrhea/number of mice,"[2]; of 15 mice per group, 4 weeks",0 number of mice
same,Urine albumin-to-creatinine ratio,"[3]; intragastric, after 4 weeks of administration",1.04 ± 1.09
same,Urine protein/mg,"[3]; intragastric, after 4 weeks of administration, 15 mice per group",17.51 ± 12.34 mg
same,Abdominal distension/number of mice,"[3]; of 15 mice per group, 4 weeks",0 number of mice
same,Diarrhea/number of mice,"[3]; of 15 mice per group, 4 weeks",0 number of mice
C[C@@H]1C[C@H]2[C@@H]3CCC4=CC(=O)C=C[C@]4(C)[C@@]3(F)[C@@H](O)C[C@]2(C)[C@@]1(O)C(=O)CO [Dexamethasone],Urine protein,[4]; 24-hour urine after 4 weeks,11.67 ± 3.45
same,C3 level of kidney,[4]; kidney tissue after 4 weeks,1.21 ± 0.67
same,IgG level of kidney,[4]; kidney tissue after 4 weeks,1.32 ± 0.67
same,Logarithm of antinuclear antibody titers,[4]; serum after 4 weeks,0.81 ± 0.11
OC[C@H]1O[C@@H](c2ccc(Cl)c(Cc3ccc(O[C@H]4CCOC4)cc3)c2)[C@H](O)[C@@H](O)[C@@H]1O [Empagliflozin],serum uric acid level,[1],significantly reduces
OC[C@H]1O[C@@H](c2ccc(F)c(Cc3cc4ccccc4s3)c2)[C@H](O)[C@@H](O)[C@@H]1O [Ipragliflozin],serum uric acid level,[1],significantly reduces
CCCCC1=NC2(CCCC2)C(=O)N1Cc1ccc(-c2ccccc2-c2nnn[nH]2)cc1 [Irbesartan],Serum creatinine,[5],16.67 ± 1.23
same,Serum urea nitrogen,[5],3.01 ± 0.98
CCOc1ccc(Cc2cc([C@@H]3S[C@H](CO)[C@@H](O)[C@H](O)[C@H]3O)c(OC)cc2C)cc1 [Luseogliflozin],serum uric acid level,[1],significantly reduces
CN(CCOc1ccc(CC2SC(=O)NC2=O)cc1)c1ccccn1 (stereo not drawn) [Rosiglitazone],Degree of pulmonary alveolitis,[6],1.03 ± 0.49
same,Degree of pulmonary fibrosis,[6],1.15 ± 0.81
CCc1ccc(Cc2ccc3c(c2)[C@]2(OC3)O[C@H](CO)[C@@H](O)[C@H](O)[C@H]2O)cc1 [Tofogliflozin],serum uric acid level,[1],significantly reduces
O=c1c(O)c(-c2ccc(O)c(O)c2)oc2cc(O)cc(O)c12 [quercetin],effect on ocular blood flow,[7],negative effect
Verteporfin,Area of choroidal angiogenesis/μm^2,[8],19.80 ± 1.23^# μm^2
same,Ocular choroidal blood flow inhibition ratio,[8],87.98 ± 11.23
